The subject of data set [1] is NSCLC A549 cells. The data set can be described thus: MTS/PMS cell viability, A549. For TI > 1: key: '✔' means induction; '-' means non-induction of any of the tested processes. In kind it is cell-based, human. Here is the method:
A similar procedure was performed to determine the IC50 of the triterpenes in a normal lung fibroblast cell line (MRC5). In brief, the A549 and MRC5 cells were seeded into 96-well plates at a density of 1 × 10^5 cells/mL in supplemented DMEM medium. […] Then, 10 uL of the MTS reagent from the CellTiter 96® Aqueous Non-Radioactive Cell Proliferation Assay (Promega G5421) was added to each well. Then, we incubated the plates at 37 °C and in a 5% CO2 atmosphere for 1 h. After incubation, the absorbance was measured at 492 nm (n = 8) in a microplate reader spectrophotometer (Thermoscientific Multiskan FC). The cell viability was calculated as follows:% Viability = (sample absorbance − sample media absorbance)/(untreated cells’ absorbance − untreated cells’ media absorbance) × 100
The cell viability data were presented by plotting the values with an average of eight measurements for each treatment (mean ± SD) in at least three independent experiments. The IC50 values were calculated with the GraphPad Prism 9 software (Prism 9; GraphPad by Dotmatics, San Diego, CA, USA) using the dose–response curve.

The test system of data set [2] is LC3-II. Briefly: Autophagy induction assay (LC3 antibody, flow cytometry). The class given is cell-based, human. To be noted: for Autophagic response (in words): A549, IC25, 24 h, vs controls (untreated ratio 0.8, starving ratio 1). Here is the method: (§1) We used flow cytometry to analyze several cellular mechanistic pathways in A549 cells after incubation with the triterpenes. In general, the cells were seeded in a 6-well plate at a density of 1 × 10^6 cells/mL and incubated for 24 h in supplemented DMEM. After 24 h, the A549 cells were treated with the triterpenes, following each manufacturer’s protocol. All of the following experiments were performed in a Muse® Cell Analyzer (EMD Millipore Corporation, Temecula, CA). The instrument was calibrated before each assay using the Muse® System Check Kit (Luminex MCH100101, Luminex Corporation). Each assay was run at least in two independent experiments. For each experiment, all samples were analyzed in triplicate in the instrument and the capillary line was washed after each sample run to avoid artifacts. In addition, to address the issue of cell doublets, we used the Muse® Cell Dispersal Reagent (Luminex Corporation) in all experiments. The concentration of the triterpenes in each assay was selected depending on the cellular concentration necessary to generate the gain signal in the instrument. This means that we attempted to select concentrations avoiding excessive cytotoxicity to accurately determine the respective signal from each assay.
The Muse® Autophagy LC3 Antibody-Based Kit (Luminex MCH200109, Luminex Corporation) was used to determine autophagy activation by monitoring lipidated LC3-II. After the A549 cells were treated with the triterpenes (IC25) for 24 h, autophagy reagent A was added for 4 h to prevent the lysosomal degradation of LC3-II. Then, the cells were detached and centrifuged. The pellet was suspended and incubated for 30 min in the autophagy reagent B containing anti-LC3-II mouse monoclonal antibody. Finally, the cell pellet was washed and suspended in fresh assay buffer for measurement. The autophagy response was calculated using the following formula:
Autophagy ratio = mean autophagy value of treated or untreated cells/mean autophagy value of starving cells.
The starving cells were labeled ‘No supp’ as non-supplemented cells. These served as the positive signal for autophagy and were designated a ratio of 1 since they were compared to themselves. A ratio ≥1 indicates the activation of the autophagic response.

Data set [3] deals with MAPK/PI3K. Briefly: MAPK/PI3K protein expression (dual pathway activation kit, flow cytometry). For MAPK/PI3K inhibition: key: '✔' means induction; '-' means non-induction of any of the tested processes. In kind it is cell-based, human. The settings on record: for MAPK/PI3K expression (in words): A549, IC25, 24 h, vs untreated cells; for MAPK/PI3K inhibition: summary, NSCLC A549 cells. The protocol: as §1
The Muse® P13K/MAPK Dual Pathway Activation Kit (Luminex MCH200108, Luminex Corporation) was used to determine MAPK/PI3K expression. After the incubation treatment with the triterpenes (IC25) for 24 h, the A549 cells were scraped, centrifuged, and washed once with 1× PBS. Next, the fixation buffer was incubated for 10 min and then the permeabilization buffer for another 10 min. Both incubations were performed on ice. Later, the antibody cocktail containing anti-phospho-Akt and anti-phospho-ERK1/2 was incubated for 30 min. Afterward, the cell pellet was washed and suspended in fresh assay buffer for measurement.
For orientation: Flow cytometry measures light scatter and fluorescence of single cells or particles in a stream.

Data set [4] has as its system DNA damage machinery in A549 cells. Briefly: DNA damage assay (anti-pH2AX / anti-pATM, flow cytometry). In kind it is cell-based, human. To be noted: A549, IC50, 24 h, vs untreated cells. The protocol:
as §1
Then, the A549 cells were scraped and centrifuged. The pellet was suspended in the assay buffer from the Luminex MCH200107 kit (Luminex Corporation). […]

A short description of data set [5]: MTS/PMS cell viability, MRC5. The class given is cell-based. The settings on record: human, MRC5 normal lung fibroblast cells. Here is the method: The 50% inhibitory concentration (IC50) of some of these triterpenes in A549 NSCLC cells were previously determined by us. A similar procedure was performed to determine the IC50 of the triterpenes in a normal lung fibroblast cell line (MRC5). In brief, the A549 and MRC5 cells were seeded into 96-well plates at a density of 1 × 10^5 cells/mL in supplemented DMEM medium. The cells were treated with specific concentrations (A549: 5, 10, 25, 50, 75, 100, 125,150, 175, 200 μM; MRC5: 5, 10, 25, 50, 75, 100 μM) of the triterpenes and incubated for 24 h. Then, 10 uL of the MTS reagent from the CellTiter 96® Aqueous Non-Radioactive Cell Proliferation Assay (Promega G5421) was added to each well. Then, we incubated the plates at 37 °C and in a 5% CO2 atmosphere for 1 h. After incubation, the absorbance was measured at 492 nm (n = 8) in a microplate reader spectrophotometer (Thermoscientific Multiskan FC). The cell viability was calculated as follows:% Viability = (sample absorbance − sample media absorbance)/(untreated cells’ absorbance − untreated cells’ media absorbance) × 100
The cell viability data were presented by plotting the values with an average of eight measurements for each treatment (mean ± SD) in at least three independent experiments. The IC50 values were calculated with the GraphPad Prism 9 software (Prism 9; GraphPad by Dotmatics, San Diego, CA, USA) using the dose–response curve. The data were normalized by the non-linear fit of the log (drug inhibition) vs. normalized response variable slope to obtain the best fit IC50 and R-squared values.

The test system of data set [6] is NSCLC A549 cells. Further details: method as in PMID 31338398. The settings on record: cited from earlier work; for IC50: 24 h, MTS/PMS, already obtained by the authors; for Cytotoxicity in A549 cells at the highest concentration: 100 μM.
Data set [7] deals with A549 cells. Briefly: Total ROS production assay (DCF). The class given is cell-based, human. The settings on record: A549, IC25 (CisPt 25 μM), 24 h. Here is the method: The production of total ROS was determined using the 2′,7′-dichlorodihydrofluorescein diacetate (DCF) fluorescent dye. A549 cells were seeded in a concentration of 1 × 10^5 cells/mL into black 96-well plates with a clear bottom. After 24 h, the cells were incubated with the triterpenes (IC25) and controls for 24 h. Then, 50 μL of DCF (10 μM) was added to each well and they were incubated for 1 h at room temperature. Then, the fluorescence of each well was measured (Ex/Em = 485/530 nm) in the Tecan® M200 plate reader.
This experiment was performed in triplicate. All data were expressed by plotting the values as an average of three measurements for each treatment condition as the mean ± SD and analyzed with the software GraphPad Prism 9. Statistical analysis was performed using one-way analysis of variance (ANOVA) to compare the mean value of each treated type of cells versus the control (untreated cells). The statistical significance defined by the software for p values was **** < 0.0001, *** from 0.001 to 0.0001, ** from 0.001 to 0.01, * from 0.01 to 0.05, and non-significant (ns) ≥ 0.05.

Data set [8] concerns PDL1 gene. Briefly: RT-qPCR gene expression of PDL1. The class given is cell-based, human. The settings on record: A549, IC25 (CisPt 25 μM), 24 h. The protocol: (§2) A549 cells were seeded into 6-well plates at a density of 1 × 10^6 cells/mL in supplemented DMEM. The cells were incubated with the triterpenes (IC25) for 24 h. Total RNA was extracted from the cells using the TRIzol reagent (Invitrogen Corporation, Carlsbad, CA, USA) according to the manufacturer’s instructions. The purity and concentration of RNA were assessed using a NanoDrop spectrophotometer (Thermo Fisher Scientific). cDNA was synthesized using the High-Capacity cDNA Reverse Transcription Kit (Applied Biosystems) according to the manufacturer’s instructions.
(§3) RT-qPCR was performed on a StepOnePlus® Real-Time PCR System (Thermo Fisher Scientific) using TaqMan Gene Expression Assays (Applied Biosystems) for PDL1 (CD274; Assay ID: Hs01125297_m1), ribonucleotide reductase (RR) M1 (Assay ID: Hs01040697_m1), and STAT3 (Assay ID: Hs01047586_g1). Each reaction consisted of 10 ng of cDNA, TaqMan Gene Expression Master Mix (Applied Biosystems), and TaqMan probes. The PCR cycling conditions were as follows: 95 °C for 10 min, followed by 40 cycles of 95 °C for 15 s and 60 °C for 60 s. The relative gene expression levels were calculated using the ΔΔCt method. GAPDH (Assay ID: Hs02758991_g1) was used as the endogenous control for normalization.
(§4) All RT-qPCR experiments were performed at least in triplicate. All data were expressed by plotting values with an average of four measurements for each treatment condition as the mean ± SD and analyzed with the software GraphPad Prism 9. Statistical analysis was performed using one-way analysis of variance (ANOVA) to compare the mean value of each treated type of cells versus the control (untreated cells). The statistical significance defined by the software for p values was **** < 0.0001, *** from 0.001 to 0.0001, ** from 0.001 to 0.01, * from 0.01 to 0.05, and non-significant (ns) ≥ 0.05.
A general note: In qPCR the cycle at which signal appears reflects the starting amount.

Data set [9] has as its system RRM1 gene. Briefly: RT-qPCR gene expression of ribonucleotide reductase M1. In kind it is cell-based, human. Here is the method: as §2
as §3, with “GAPDH (Assay ID: Hs02758991_g1) was used as the endogenous control for normalization.” left out
All RT-qPCR experiments were performed at least in triplicate. All data were expressed by plotting values with an average of four measurements for each treatment condition as the mean ± SD and analyzed with the software GraphPad Prism 9. […]

Data set [10] deals with STAT3 gene. The data set can be described thus: RT-qPCR gene expression of STAT3. The class given is cell-based, human. Here is the method:
as §2, §3, §4

In data set [11] the test system is A549 cells. The data set can be described thus: Mitochondrial ROS production assay (DHE, flow cytometry). In kind it is cell-based, human. The settings on record: A549, IC25, 24 h; group average. Here is the method:
as §1
The production of reactive oxygen species (ROS) by mitochondria was determined using the Oxidative Stress Kit (Luminex MCH100111, Luminex Corporation). After the A549 cells were treated with the triterpenes (IC25) for 24 h, the cells were scraped and centrifuged. For ROS, the cell pellet was incubated with dihydroethidium (DHE) dye for 1 h at 37 °C.

SMILES strings stand for the structures. Where two headings read alike, the source gives them in different places.

As a reminder, the IC50 is the concentration at which inhibition is half-maximal.

As to `C[C@H]1[C@H](C)CC[C@]2(C(=O)O)CC[C@]3(C)C(=CC[C@@H]4[C@@]5(C)C[C@@H](O)[C@H](O)[C@@](C)(CO)[C@@H]5CC[C@]43C)[C@H]12` [AsA, asiatic acid], the TI in data set [1] (TI = MRC5 IC50/A549 IC50, >1 means higher selectivity) worked out at 0.64. The “TI > 1” value in [1] (summary, MRC5 vs A549) is “-”. For the same molecule, the “Autophagic response (in words)” value in [2] is recorded as “induced an autophagic response similar to that of CisPt”. Moreover, in data set [2] (summary, NSCLC A549 cells), the Autophagy inhibition entry is listed as “-”. Also, in data set [3], the “MAPK/PI3K expression (in words)” value is given as “did not affect the expression of MAPK/PI3K” and the MAPK/PI3K inhibition entry is on record as “-”. In addition, the “Activation of the DNA damage machinery (in words)” value in data set [4] was “caused the activation of the DNA damage machinery”. The molecule also came in with an IC50 at 24 h in [5] of 38 ± 2 µM. The IC50 in data set [6] is 59 ± 6 µM.
With `N.N.[Cl][Pt][Cl]` [CisPt, cis-diamminedichloroplatinum (II), reference compound], in [7], the “Total ROS production (in words)” value is “not statistically significant”. Also, in data set [8], the “PDL1 gene expression (in words)” value is given as “clearly upregulated PDL1”.
On to `CC1(C)CC[C@]2(C(=O)O)CC[C@]3(C)C(=CC[C@@H]4[C@@]5(C)CC[C@H](O)C(C)(C)[C@@H]5CC[C@]43C)[C@@H]2C1` [OleA, oleanolic acid], for which the TI in [1] was determined as 2. Further, in data set [2], the “Autophagic response (in words)” value was “inhibit the LC3-II activity”. Also, in data set [9] (A549, IC25, 24 h, vs untreated cells), the “RRM1 gene expression (in words)” value is listed as “did not downregulate RR”. Also, in [9] (summary, NSCLC A549 cells), the RRM1 downregulation result is recorded as “-”. In [10] (A549, IC25, 24 h), the “STAT3 gene expression (in words)” value is given as “did not inhibit”. Also, in data set [10] (summary, NSCLC A549 cells), the STAT3 downregulation entry was “-”. In [3], the “MAPK/PI3K expression (in words)” value is “did not affect the expression of MAPK/PI3K” and the MAPK/PI3K inhibition result was “-”. Further, the “Amount of mROS, on average of the three named triterpenes, compared to the untreated cells” value in data set [11] came out at 26.2%. In addition, the IC50 at 24 h in data set [5] worked out at 86 ± 2 µM. Further, the IC50 in data set [6] is 43 ± 5 µM.
Regarding `CC(C)CCC[C@@H](C)[C@H]1CC[C@H]2[C@@H]3CC=C4C[C@@H](O)CC[C@]4(C)[C@H]3CC[C@]12C` [cholesterol, reference compound], the “Cytotoxicity in A549 cells at the highest concentration” value in [6] was “did not kill A549 cells”.
As for `CC[C@H](CC[C@@H](C)[C@H]1CC[C@H]2[C@@H]3CC=C4C[C@@H](O)CC[C@]4(C)[C@H]3CC[C@]12C)C(C)C` [β-sitosterol, reference compound], the “Cytotoxicity in A549 cells at the highest concentration” value in data set [6] is “did not kill A549 cells”.

Values taken from paper PMC11206507, “Unraveling the Impact of Six Pentacyclic Triterpenes Regulating Metabolic Pathways on Lung Carcinoma Cells” (Pharmaceuticals, 2024).
